Test [1] deals with T1, hOT-R (Homo sapiens, UniProt P30559).
T1 sequence (P30559 1-389): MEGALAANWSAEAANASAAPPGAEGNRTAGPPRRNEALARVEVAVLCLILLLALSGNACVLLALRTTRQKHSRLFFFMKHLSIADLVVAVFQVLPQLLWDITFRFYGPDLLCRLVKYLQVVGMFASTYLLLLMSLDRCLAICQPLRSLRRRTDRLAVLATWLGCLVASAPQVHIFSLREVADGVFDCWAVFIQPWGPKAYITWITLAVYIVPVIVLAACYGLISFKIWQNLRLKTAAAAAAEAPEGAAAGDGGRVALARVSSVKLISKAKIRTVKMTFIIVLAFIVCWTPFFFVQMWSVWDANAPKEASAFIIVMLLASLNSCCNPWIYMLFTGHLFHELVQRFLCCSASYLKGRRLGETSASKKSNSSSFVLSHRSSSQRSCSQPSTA
Put plainly: Functional assay No. 1: inhibition of oxytocin-induced Ca2+-mobilization by FLIPR. The following applies: oxytocin-induced intracellular Ca2+ mobilization, read-out: Inhibition of Ca^2+ mobilization, hOT-R IC50. It counts as cell-based. Set-up: expressed in transfected cells; host or cells: HEK cells (CHO cells also mentioned). The procedure: c) Functional Assay No. 1: Inhibition of Ca^2+-Mobilization by FLIPR
Preparing the plates: FLIPR-plates were pre-coated with PLL 10 μg/ml+0.1% gelatine for 30 min up to 2 days at 37° C. (for HEK-cells). The cells were plated out into 96-well plates (60000 cells/well).
Labelling with fluo-4: 50 μg fluo-4 were dissolved in 20 μl pluronic acid (20% in DMSO). The dissolved fluo-4 was then diluted in 10 ml DMEM-F12 medium without FCS. The medium was removed from the plates, followed by one wash with DMEM-F12 medium. Now, 100 μl of the DMEM-F12 medium containing fluo-4 were added and the cells incubated for 1–1.5 h (CHO-cells), and 1.5–2 h (HEK-cells).
Buffer: 145 mM NaCl, 5 mM KCl, 1 mM MgCl2, 10 mM Hepes, 10 mM Glucose, EGTA. Adjust to pH 7.4.
Preparation of agonists and antagonists: A minimum of 80 μl/well of agonists and anta-gonists (5×) in the above buffer (1×) were prepared (96-well plates).
The activities of the pyrrolidine derivatives according to formula I were assessed using the above described in vitro biological assay. The values refer to the capacity of the example compounds according to formula I to effectively antagonize oxytocin-induced intracellular Ca^2+-mobilization mediated by the Oxytocin receptor.
In general terms: Calcium flux is commonly read through the fluorescence of an indicator in the cells.

Test [2] has as its target T1, hOT-R. Put plainly: In vitro binding assay (SPA), competition with [125I]-OVTA on membranes from HEK293EBNA cells expressing the hOT receptor. More on the design: expressed in transfected cells; host or cells: HEK293EBNA. The following applies: 0.2 nM [125I]-OVTA, read-out: Binding affinity human OT-R IC50. The procedure: a) In Vitro Binding Assay (SPA)
Membranes from HEK293EBNA cells expressing the hOT receptor were resuspended in buffer containing 50 mM Tris-HCl, pH 7.4,5 mM MgCl2 and 0.1% BSA (w/v). The membranes (2–4 μg) were mixed with 0.1 mg wheat-germ aglutinin (WGA) SPA bead (type A) and increasing concentrations of [^125I]-OVTA (for saturation binding experiments) or 0.2 nM [^125I]-OVTA (for competition binding experiments). Non specific binding was deter-mined in the presence of 1 μM Oxytocin. The total assay volume was 100 μl. The plates were incubated at room temperature for 30 min and counted on a Mibrobeta plate counter. The competition binding data were analysed using the iterative, nonlinear, curve-fitting program, Prism.
The binding affinities to the oxytocin receptor of the pyrrolidine derivatives claimed in the formula I were assessed using the above described in vitro biological assay. The values refer to the binding capacity of the example compounds according to formula I to the Oxytocin receptor. From the values shown in Table 1 it can be derived that said test compounds according to formula I do show a significant binding to the Oxytocin receptor.

For test [3], the system named is oxytocin-induced uterine contractions in the rat. In words: In vivo model for inhibition of uterine contractions (oxytocin-induced, anaesthetised DES-treated rats). The note with it: intravenous, PEG400/saline 50:50, 5 ml/kg infusion. The protocol:
e) In Vivo Model for Inhibition of Uterine Contractions
Non-pregnant Charles River CD(SD) BR female rats (9–10 weeks old, 200–250 g) were treated at 18 and 24 hours before the experiment with 250 μg/kg, i.p. diethylstilbestrol (DES). For the assay, the animal was anaesthetised by urethane (1.75 g/kg, i.p.) and placed on an homeothermic operating table. The trachea was isolated and cannulated with a suitable polyethylene (PE) tubing. A midline incision at the hypogastrium level was made and one uterine horn exposed, its cephalic end cannulated with a PE240 tubing and, after filling the internal cavity with 0.2 ml of sterile physiological saline, connected to a “Gemini” amplifying/recording system via a P23ID Gould Statham pressure transducer. For the i.v. route of administration of the test compounds, one jugular vein was isolated and cannulated with a PE60 tubing connected to a butterfly needle to allow the administration by a dispensing syringe. In the case of intraduodenal administration of the test compounds, the duodenum was isolated and similarly cannulated through a small incision in its wall. One carotid artery was also isolated and cannulated with PE60 catheter and connected to a suitable syringe for blood sample collection (see below). After a stabilization period, the same dose of oxytocin was repeatedly injected intravenously at 30-min intervals. […] Further injections of the same dose of oxytocin were then made for a suitable time after treatment to assess inhibitory effects of the compounds under study. The contractile response of the uterus to oxytocin was quantified by measuring the intrauterine pressure and the number of contractions. The effect of the reference and test compounds were evaluated by comparing pre- and post-treatment pressure values. In addition, at 2, 30, 90 and 210 minutes after test compound administration, a 0.5-ml blood sample was withdrawn from the cannulated carotid artery of each experimental animal. Plasma was obtained by standard laboratory procedure and the resulting samples were stored at −20° C.
The activities of the pyrrolidine derivatives claimed in the formula I were assessed using the above described in vivo biological assay. The values refer to the capacity of the example compound according to formula I to effectively antagonize oxytocin-induced -uterine contractions in the rat.

The term IC50 denotes the point on the concentration scale where inhibition reaches its midpoint.

Turning to `CO/N=C1/C[C@@H](C(=O)NCCO)N(C(=O)c2ccc(-c3ccccc3)cc2)C1` [(2S,4Z)-1-([1,1′biphenyl]-4-ylcarbonyl)-N-(2-hydroxyethyl)-4-(methoxyimino)-2-pyrrolidinecarboxamide], at hOT-R [1], the IC50 came out at 650 nM. On to `O=C(NCC(O)c1ccccc1)[C@@H]1C/C(=C/Cl)CN1C(=O)c1ccc(-c2ccccc2)cc1` (mixture of isomers) [(2S,4Z)-1-([1,1′-biphenyl]-4-ylcarbonyl)-4-(chloromethylene)-N-[(2RS)-2-hydroxy-2-phenylethyl]-2-pyrrolidinecarboxamide], for which the IC50 at hOT-R [2] came to 350 nM. Still for that read-out and setting: as for `CON=C1C[C@@H](C(=O)NC[C@@H](O)c2ccccc2)N(C(=O)c2cccc(Oc3ccccc3)c2)C1` (racemic) [Example 278], the figure is 2300 nM; as for `CON=C1C[C@@H](C(=O)NCCC(N)=O)N(C(=O)c2ccc(-c3ccccc3C)cc2C)C1` [Example 410, (2S,4EZ)-N-(3-amino-3-oxopropyl)-1-[(2′,3-dimethyl[1,1′-biphenyl]-4-yl)carbonyl]-4-(methoxyimino)-2-prrolidinecarboxamide], 540 nM. As to `CO/N=C1/C[C@@H](C(=O)NC[C@@H](O)c2ccccc2)N(C(=O)c2ccc(-c3ccccc3C)cc2)C1` [drawing 18, (2S,4Z)-N-[(2S)-2-hydroxy-2-phenylethyl]-4-(methoxyimino)-1-[(2′-methyl[1,1′-biphenyl]-4-yl)carbonyl]-2-pyrrolidinecarboxamide], the “% Reduction of Utenne Contraction” value is recorded as −23.8 ± 4.1% in test [3] (dose 0.3 mg/kg); −27.6 ± 4.6% in test [3] (dose 1 mg/kg); −50.4 ± 5.8% in test [3] (dose 3 mg/kg); −65.6 ± 6.4% in test [3] (dose 10 mg/kg); −76.5 ± 4.24% in test [3] (dose 30 mg/kg). Moreover, the IC50 came out at 70 nM at hOT-R [2] and 30 nM on hOT-R [1]. In the case of `CON=C1C[C@@H](C(=O)N2CCC(O)CC2)N(C(=O)c2ccc(-c3ccccc3C)cc2)C1` [Example 372, (3EZ,5S)-5-[(4-hydroxy-1-piperidinyl)carbonyl]-1-[(2′-methyl[1,1′-biphenyl]-4-yl)carbonyl]-3-pyrrolidinone O-methyloxime], the IC50 on hOT-R [2] was determined as 300 nM. Still for that read-out and setting: the same measure for `CON=C1C[C@@H](C(=O)N[C@@H]2CCCC[C@H]2CO)N(C(=O)c2ccc(-c3ccccc3OC)cc2)C1` [Example 384, (2S,4EZ)-N-[(1R,2R)-2-(hydroxymethyl)cyclohexyl]-1-[(2′-methoxy[1,1′-biphenyl]-4-yl)carbonyl]-4-(methoxyimino)-2-pyrrolidinecarboxamide]: 550 nM. As for `CO/N=C1\C[C@@H](C(=O)NC[C@@H](O)c2ccccc2)N(C(=O)c2ccc(-c3ccccc3C)cc2)C1` [drawing 17, (2S,4E)-N-[(2S)-2-hydroxy-2-phenylethyl]-4-(methoxyimino)-1-[(2′-methyl[1,1′-biphenyl]-4-yl)carbonyl]-2-pyrrolidinecarboxamide], the IC50 came out at 130 nM on hOT-R [2] and 70 nM at hOT-R [1]. Regarding `CO/N=C1/C[C@@H](c2nc3ccccc3[nH]2)N(C(=O)c2ccc(-c3ccccc3)cc2)C1` [(3Z,5S)-5-(1H-benzimidazol-2-yl)-1-([1,1′-biphenyl]-4-ylcarbonyl)-3-pyrrolidinone O-methyloxime], the IC50 at hOT-R [2] is 630 nM; on hOT-R [1], 400 nM. Turning to `CON=C1C[C@@H](C(=O)NCC[C@@H](O)c2ccccc2)N(C(=O)c2ccc(-c3ccccc3C)cc2)C1` [Example 433, (2S,4EZ)-N-[(3R)-3-hydroxy-3-phenylpropyl]-4-(methoxyimino)-1-[(2′-methyl[1,1′-biphenyl]-4-yl)carbonyl]-2-pyrrolidinecarboxamide], on hOT-R [1], the IC50 turned out to be 320 nM. As to `CON=C1C[C@@H](C(=O)NC[C@@H](O)c2ccccc2)N(C(=O)c2ccc(-c3ccccc3Cl)cc2)C1` [Example 438, (2S,4EZ)-N-[(2S)-2-hydroxy-2-phenylethyl]-4-(methoxyimino)-1-{[2′-chloro[1,1′-biphenyl]-4-yl]carbonyl}-2-pyrrolidinecarboxamide], the IC50 on hOT-R [2] turned out to be 170 nM. The same measure, in the same setting: as for `CON=C1C[C@@H](C(=O)NCCCO)N(C(=O)c2ccc(-c3ccccc3C)cc2)C1` [Example 377, (2S,4EZ)-N-(3-hydroxypropyl)-4-(methoxyimino)-1-[(2′-methyl[1,1′-biphenyl]-4-yl)carbonyl]-2-pyrrolidinecarboxamide], the figure is 370 nM.

The values above are taken from US7211601B2, “Pharmaceutically active pyrrolidine derivatives” (Applied Research Systems Ars Holding N.V., priority 2000, dated 2007).
